From patent publication US20080031866A1, “METHOD FOR MODULATING THE PHARMACOKINETICS AND METABOLISM OF A THERAPEUTIC AGENT” (priority 2006, published 2008)

What was measured:
[1] = Intraduodenal dosing with and without β-glucuronidase, catheterized rat; format: in vivo; settings: male, Sprague Dawley, rat, plasma, 10 mg/kg, rats N=6; for AUC: read-out: AUC average ± standard deviation 0 to 6 hours; for Cmax: read-out: Cmax average ± standard deviation; for concentration at 0 h / concentration at 0.25 h / concentration at 0.5 h / concentration at 1 h / concentration at 2 h / concentration at 3 h / concentration at 4 h / concentration at 5 h / concentration at 6 h: other: intraduodenal
Description: (§1) A catheterized rat model was used in which the agent alone or agent and β-glucuronidase enzyme was administered intraduodenally or intracolonically. The intraduodenal and intracolonic dosing was intended to prevent the potential for loss of enzymatic activity when orally dosing the β-glucuronidase (e.g. by degradation in the stomach). […]
(§2) For the oral gavage dosing, Compound 1 was prepared in neat PEG-400. For the intraduodenal and intracolonic dosing solutions, Compound 1 was added to neat Tween 80, the mixture was sonicated for thirty minutes at 45° C. until Compound 1 was completely dissolved and then deionized (DI) water was added to form a solution consisting of 20% Tween 80 and 80% DI water by weight.
(§3) For the oral enzyme solutions, β-glucuronidase was added to the final formulation at a concentration of 57,600 units/ml.
(§4) For the intraduodenal and intracolonic dosing, male Sprague Dawley rats weighing 300-400 g were purchased from Charles River Labs. All rat experiments were conducted under approved animal protocols. The rats were catheterized at Charles River Labs and had one or more of the following chronic catheters for dosing and sampling: jugular/carotid, duodenal, and colonic. Rats were limited to only one GI catheter and one vascular catheter. For IV dosing, rats were purchased with jugular and carotid catheters for dosing in the jugular catheter and blood sampling through the carotid catheter. For intraduodenal/intracolonic dosing, rats had one of the GI catheters for dosing and a carotid catheter for blood sampling.
(§5) The surgeries were done two weeks prior to start of testing. Rats were fed 4 hours post dose administration. All rats were dosed without anesthesia and sacrificed at the end of the study.
(§6) A quantitative method for determining the amount of (6,7-dimethoxy-2,4-dihydro-indeno[1,2-c]pyrazol-3-yl)-(3-fluoro-phenyl)-amine Compound 1 and its major metabolites, glucuronide A (Cpd 1-GluA) and glucuronide B (Cpd 1-GluB) (see Scheme A) in rat plasma was developed using phenacetin as an internal standard. [drawing 1]
(§7) The two glucuronide conjugates were prepared and purified to permit accurate quantification of the levels of intact parent Compound 1 versus Cpd 1-GluA and Cpd 1-GluB. Each standard curve for Compound 1, Cpd 1-GluA, and Cpd 1-GluB generated from rat plasma included ten concentration levels. […] The quantitative procedure for each sample included: sample preparation, HPLC separation and mass spectrometry detection.
(§8) The rat plasma was prepared using protein precipitation techniques. Reference standards and quality control samples in rat plasma for Compound 1 were transferred to a 96 deep-well plate. The precipitation solution contained 100 ng/ml of internal standard in acetonitrile. 300 μl of precipitation solution were added to 100 μl of each standard, quality control and plasma sample. Samples were vortexed for 10 mins, then centrifuged at 4500 RPM for 10 mins. 10 μl of each sample were injected for LC/MS/MS analysis.
(§9) The HPLC column chosen for the bioanalysis was purchased from Thermo Electron (Hypersil BetaBasic C18, 5 cm×2.1 mm). The eluting solvents were composed of Solvent A: 0.1% formic acid in H2O and Solvent B: 0.1% formic acid in acetonitrile. A step gradient was used and flow rate was 300 μl/min. The total run time was 3.2 mins. Solvent B was increased from 35% at 0 min to 75% at 2.1 mins and decreased back to 35% at 2.2 mins. The retention times for Compound 1, phenacetin, Cpd 1-GluA and Cpd 1-GluB were 1.1 min, 0.9 min, 1.3 min, and 1.6 min, respectively.
(§10) API3000 with a Turbo Ionspray interface from Applied Biosystems was used for the detection of Compound 1, the internal standard and major metabolites. Electrospray ionization was performed in the positive ion mode heated nebulizer with a temperature of 300° C. LC/MS/MS chromatograms were acquired in MRM (multiple reaction mode). […]

[2] = Intracolonic dosing with and without β-glucuronidase, catheterized rat; format: in vivo; settings: 10 mg/kg, rats N=6; for AUC / Cmax / concentration at 0 h / concentration at 0.25 h / concentration at 0.5 h / concentration at 1 h / concentration at 2 h / concentration at 3 h / concentration at 4 h / concentration at 5 h / concentration at 6 h: male, Sprague Dawley, rat, plasma; for AUC: read-out: AUC average ± standard deviation 0 to 6 hours; for Cmax: read-out: Cmax average ± standard deviation; for concentration at 0 h / concentration at 0.25 h / concentration at 0.5 h / concentration at 1 h / concentration at 2 h / concentration at 3 h / concentration at 4 h / concentration at 5 h / concentration at 6 h: other: intracolonic
Description: as §1, §2, §3, §4, §5, §6, §7, §8, §9, §10

[3] = Compound 1 10 mg/kg intraduodenal with β-glucuronidase
[4] = Compound 1 10 mg/kg intraduodenal without enzyme
[5] = Compound 1 10 mg/kg intracolonic with β-glucuronidase
[6] = Compound 1 10 mg/kg intracolonic without enzyme

In the case of `COc1cc2c(cc1OC)-c1nn(C3OC(C(=O)O)C(O)C(O)C3O)c(Nc3cccc(F)c3)c1C2` (stereo in doubt) [Cpd 1-GluB], the AUC [1, 3] is reported as 1770 ng·h/mL, the Cmax [1, 3] is reported as 755 ± 509 ng/mL and the AUC [1, 4] is reported as 128 ± 55.3 ng·h/mL. For the same compound, the Cmax [1, 4] was 75.7 ± 27.4 ng/mL, the concentration at 0 h [1, 3] was 0 ng/mL and the concentration at 0.25 h [1, 3] was 508 ± 342 ng/mL. It also gave a concentration at 0.5 h [1, 3] of 503 ± 363 ng/mL, a concentration at 1 h [1, 3] of 676 ± 586 ng/mL and a concentration at 2 h [1, 3] of 275 ± 260 ng/mL. For the same compound, the concentration at 3 h [1, 3] was 271 ± 181 ng/mL, the concentration at 4 h [1, 3] was 194 ± 165 ng/mL and the concentration at 5 h [1, 3] was 146 ± 84.4 ng/mL. It also gave a concentration at 6 h [1, 3] of 119 ± 108 ng/mL, a concentration at 0 h [1, 4] of 0 ng/mL and a concentration at 0.25 h [1, 4] of 70.2 ± 29.3 ng/mL. It also gave a concentration at 0.5 h [1, 4] of 72.4 ± 28.2 ng/mL, a concentration at 1 h [1, 4] of 51.2 ± 24.9 ng/mL and a concentration at 2 h [1, 4] of 13.5 ± 5.5 ng/mL. It also gave a concentration at 3 h [1, 4] of 7.1 ± 5 ng/mL, a concentration at 4 h [1, 4] of 9.6 ± 6.7 ng/mL and a concentration at 5 h [1, 4] of 9.2 ± 4.1 ng/mL. The concentration at 6 h [1, 4] was 10.4 ± 4 ng/mL, the AUC [2, 5] was 176 ± 123 ng·h/mL and the Cmax [2, 5] was 79.4 ± 47.3 ng/mL. For the same compound, the AUC [2, 6] was 499 ± 137 ng·h/mL, the Cmax [2, 6] was 140 ± 56.9 ng/mL and the concentration at 0 h [2, 5] was 0 ng/mL. For the same compound, the concentration at 0.25 h [2, 5] was 508 ± 342 ng/mL, the concentration at 0.5 h [2, 5] was 503 ± 363 ng/mL and the concentration at 1 h [2, 5] was 676 ± 586 ng/mL. The concentration at 2 h [2, 5] was 275 ± 260 ng/mL, the concentration at 3 h [2, 5] was 271 ± 181 ng/mL and the concentration at 4 h [2, 5] was 194 ± 165 ng/mL. The concentration at 5 h [2, 5] was 146 ± 84.4 ng/mL, the concentration at 6 h [2, 5] was 119 ± 108 ng/mL and the concentration at 0 h [2, 6] was 0 ng/mL. It also gave a concentration at 0.25 h [2, 6] of 70.2 ± 29.3 ng/mL, a concentration at 0.5 h [2, 6] of 72.4 ± 28.2 ng/mL and a concentration at 1 h [2, 6] of 51.2 ± 24.9 ng/mL. It also gave a concentration at 2 h [2, 6] of 13.5 ± 5.5 ng/mL, a concentration at 3 h [2, 6] of 7.1 ± 5 ng/mL and a concentration at 4 h [2, 6] of 9.6 ± 6.7 ng/mL. The concentration at 5 h [2, 6] was 9.2 ± 4.1 ng/mL, the concentration at 6 h [2, 6] was 10.4 ± 4 ng/mL and the “AUC average ± standard deviation 0 to 6 hours” value [2, 5] was 175.9 ± 123.1 ng·h/mL. The “AUC average ± standard deviation 0 to 6 hours” value [2, 6] was 498.7 ± 137.2 ng·h/mL.
